Source: paper PMC2867455 (Journal of medicinal chemistry, 2010)
Values belong to the compound of their own block, whether it stands above or below them.

Key:
[1] = biological target: T1, PFTase (Saccharomyces cerevisiae, UniProt P22007+P29703); assay: PFTase in vitro continuous-fluorescence assay; format: biochemical
T1 sequence (P22007 1-431): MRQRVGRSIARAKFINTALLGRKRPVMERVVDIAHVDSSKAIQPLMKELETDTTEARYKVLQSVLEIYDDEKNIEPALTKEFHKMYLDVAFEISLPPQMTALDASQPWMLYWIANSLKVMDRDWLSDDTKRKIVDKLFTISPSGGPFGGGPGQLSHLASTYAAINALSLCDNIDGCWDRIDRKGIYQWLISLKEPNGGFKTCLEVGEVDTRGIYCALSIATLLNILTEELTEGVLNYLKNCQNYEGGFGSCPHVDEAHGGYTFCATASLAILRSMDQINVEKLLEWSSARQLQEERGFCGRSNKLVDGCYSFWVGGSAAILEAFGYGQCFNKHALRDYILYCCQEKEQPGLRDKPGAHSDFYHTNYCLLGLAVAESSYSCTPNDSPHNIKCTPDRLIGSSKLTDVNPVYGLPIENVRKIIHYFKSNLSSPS
T1 sequence (P29703 1-316): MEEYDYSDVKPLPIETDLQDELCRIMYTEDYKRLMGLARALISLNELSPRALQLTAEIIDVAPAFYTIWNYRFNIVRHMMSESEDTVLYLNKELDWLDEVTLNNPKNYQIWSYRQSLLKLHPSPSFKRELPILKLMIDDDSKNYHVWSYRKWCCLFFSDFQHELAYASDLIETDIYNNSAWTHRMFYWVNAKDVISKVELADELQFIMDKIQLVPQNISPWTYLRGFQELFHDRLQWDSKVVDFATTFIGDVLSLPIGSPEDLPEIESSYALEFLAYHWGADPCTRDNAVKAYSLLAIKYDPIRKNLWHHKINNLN

[2] = biological target: PFTase; conditions: read-out: IC50 for PFTase; cited from earlier work
[3] = system: GFP-H-Ras; assay: Cell based analysis of GFP-H-Ras processing in MDCK cells
[4] = system: MDCK cells
[5] = system: mouse models of leukemia and melanoma; conditions: intra-peritoneal delivery; cited from earlier work
[6] = at concentrations as high as 100 µM, 0.04% Triton X-100

PFTase inhibition (in words) [1, 6]: little to no inhibition
Compound: Clc1ccccc1C(c1ccccc1)(c1ccccc1)n1ccnc1 [Clotrimazole]

Compound: CC(=O)OCC(=O)[C@@]1(O)CC[C@H]2[C@@H]3CCC4=CC(=O)CC[C@]4(C)[C@H]3C(=O)C[C@@]21C [Cortisone acetate]
IC50 [2]: 14 µM

PFTase inhibition (in words) [1, 6]: little to no inhibition
Compound: OC(Cn1cncn1)(Cn1cncn1)c1ccc(F)cc1F [Fluconazole]

PFTase inhibition (in words) [1, 6]: little to no inhibition
Compound: CC(=O)N1CCN(c2ccc(OCC3COC(Cn4ccnc4)(c4ccc(Cl)cc4Cl)O3)cc2)CC1 (stereo not shown) [Ketoconazole]

Compound: CCOC(=O)N1CCC(=C2c3ccc(Cl)cc3CCc3cccnc32)CC1 [Loratadine]
inhibition of GFP-H-Ras processing ([3]; 25 µM, 24 h): appreciable inhibition of GFP-H-Ras processing | inhibition of prenylation (GFP-H-Ras) ([3]; concentrations lower than 25 µM, 24 h): did not manifest observable inhibition of prenylation

Compound: Clc1ccc(COC(Cn2ccnc2)c2ccc(Cl)cc2Cl)c(Cl)c1 (stereo not shown) [Miconazole]
inhibition of GFP-H-Ras processing ([3]; 10 µM, 48 h, cells remaining alive): significant inhibition of GFP-H-Ras processing | toxicity to cells [4]: toxicity and cell death | survival in mouse models of leukemia and melanoma [5]: promote survival

Compound: Tetraiodophenolphthalein [TPIT]
PFTase inhibition (in words) ([1]; continuous fluorescence assay): not an inhibitor of PFTase
